In patent US20130123367A1, “VINYLOGOUS CHALCONE DERIVATIVES AND THEIR MEDICAL USE” (MEDIZINISCHE UNIVERSITAT WIEN, priority 2010, published 2013):
Like-named read-outs stand apart in the source and are kept apart here.

Legend:
[1] = tested on: CCRF-CEM (T-cell acute lymphoblastic leukemia); assay: Cell viability assay using EZ4U viability kit, CCRF-CEM; assay type: cell-based; conditions: Homo sapiens
Description: (§1) For quantification, cells are treated with a tetrazolium salt as indicator of cell viability. […] Then, the solution is analyzed photometrically at 450 nm with 620 nm as reference.
(§2) The final DMSO concentration was 0.5%. […] Then, wells were filled with 20 μl substrate solution for 2 to 4 hours and analyzed.
(§3) Cell viability was calculated relative to DMSO control for data comparison. IC50 values (50% inhibition of cell growth) were determined with GraphPad Prism® (Version 4.03) using nonlinear regression (sigmoidal dose-response with variable slope).

[2] = tested on: chronic lymphocytic leukemia (CLL) cells in co-culture with stromal cells; assay: Co-culture model of primary CLL cells and stromal cells (CellTiter-Blue viability); assay type: cell-based; conditions: 48 h incubation; mean of 5 patients; FIG. 7
Source text: FIG. 7: […] Data points represent the arithmetic mean of 5 patients calculated in relation to the control. […] The final DMSO concentration was 0.5%. […] In many tumors, the microenvironment plays a major role for the survival of malignant cells. In chronic lymphocytic leukemia (CLL), it has been shown that interaction with the microenvironment, among other things, promotes the survival of tumor cells during chemotherapy. Thus, co-culture models have been developed which better reflect the in vivo situation. The inventors used such a pre-clinical model for drug incubation to study the effect of stromal cells on viability.

[3] = tested on: SU-DHL-9 (Non Hodgkin's lymphoma); assay: Cell viability assay using EZ4U viability kit, SU-DHL-9; assay type: cell-based
Description: as §1, §2, §3

[4] = tested on: HL60 (Acute promyelocytic leukemia); assay: Cell viability assay using EZ4U viability kit, HL60; assay type: cell-based; conditions: Homo sapiens
Description: as §1, §2, §3

[5] = tested on: CLL cell lines MEC-1 and MEC-2; assay: Annexin V-FITC / propidium iodide staining, apoptosis in CLL cell lines; assay type: cell-based; conditions: MEC-1 and MEC-2; 24 and 48 hours incubation; FIG. 4
Description: Apoptosis was detected using propidium iodide/Annexin V FACS staining (Bender MedSystems).
Annexin V binds to phosphatidylserine which is exposed at the cell surface during execution of apoptosis. First, cells were seeded out at a density of 1.5 to 2.5 million cells per well in 12 well plates and then growth medium was added to each well to get a final volume of 2.5 ml. Compounds to be tested were diluted with medium from a 10 mM stock solution in DMSO to get different concentrations and cells were treated with 25 μl of these solutions. The final DMSO concentration was 0.5%. All treatments and controls were performed twice. Cells were incubated at 37° C. and 5% CO2 for 24 h and 48 h. Then, growth medium was removed by centrifugation, the supernatant discarded and 200 μl of an Annexin V solution were added. After 10 minutes in the dark, cells were washed once with Annexin buffer and the solution removed by centrifugation. The supernatant was discarded again and cells were suspended in 200 μl of a propidium iodide solution. Cells were measured by flow cytometry with a total of 10 000 events. Data were analyzed with CellQuest Pro™.
Compounds 1 and 22 were also tested on the CLL cell lines MEC-1 and MEC-2 in comparison with fludarabine and cyclophosphamide, two compounds used in the treatment of hematological malignancies (MEC-1 is a fludarabine-resistant cell line).

[6] = tested on: HUVEC; assay: Cell proliferation assay using crystal violet, HUVEC; assay type: cell-based; conditions: Homo sapiens
Description: (§4) For quantification, cells are treated with crystal violet, a dye that stains proteins. After washing away of excess dye, the remaining crystal violet is dissolved in a sodium citrate solution. The solution is analyzed photometrically at 590 nm. The optical density of this solution depends on the concentration of crystal violet and therefore on the amount of cells. […] To reduce effects of evaporation, only the inner 60 wells of 96-well plates (coated with 0.1% gelatine solution for studies with HUVEC) were used for experiments.
Cells were seeded at a density of 5 000 cells per well in 100 μl growth medium (HUVEC) or 20 000 (HCT116), 15 000 (SW480 and 518A2) or 10 000 (HT29) cells per well in 200 μl growth medium in 55 wells per plate. 5 wells were filled with medium only. Additionally, a 96-well plate with cells in 12 wells and medium in 6 wells was prepared as T0-plate. The next day, additional 98 μl of growth medium were added in every well (only HUVEC).
Cells were treated with 2 μl of the working solution 24 h after seeding. Final compound concentrations in the well were 10 μM for the first round of screening. The final DMSO concentration was 0.5%. […] After finishing the addition of compounds, the T0-plate was stained with crystal violet for giving the cell density at time point zero. Before staining, the growth medium was poured away. Wells were filled with 50 μl crystal violet solution for 10 min. Then the staining solution was washed away with water. Since crystal violet is environmentally hazardous the waste was collected and disposed in an appropriate manner. After air drying of the plates the crystal violet on the cells was dissolved in 100 μl of sodium citrate solution, and the absorption was measured with a plate reader at 590 nm.
Mean values were corrected with the absorption of stained medium and the corrected absorption of T0 cells. Cell growth was calculated relative to DMSO control for data comparison.

[7] = tested on: colon carcinoma cell line HCT116p53 wild type; assay: Crystal violet assay, HCT116p53wt; assay type: cell-based; conditions: n = 3
Description: as §4
(§5) Cells were treated with 2 μl of the working solution 24 h after seeding. Final compound concentrations in the well were 10 μM for the first round of screening. The final DMSO concentration was 0.5%. […] After finishing the addition of compounds, the T0-plate was stained with crystal violet for giving the cell density at time point zero. […] After air drying of the plates the crystal violet on the cells was dissolved in 100 μl of sodium citrate solution, and the absorption was measured with a plate reader at 590 nm.
as §3, with “Mean values were corrected with the absorption of stained medium and the corrected absorption of T0 cells. Cell” for “Cell”, “growth” for “viability”, “slope). […]” for “slope).”

[8] = tested on: colon carcinoma cell line HCT116p53ko; assay: Crystal violet assay, HCT116p53ko; assay type: cell-based; conditions: n = 3
Description: as §4, §5
as §3, with “Mean values were corrected with the absorption of stained medium and the corrected absorption of T0 cells. Cell” for “Cell”, “growth” for “viability”, “slope). […]” for “slope).”

[9] = tested on: vascular smooth muscle cells (VSMC); assay: Crystal violet assay, VSMC; assay type: cell-based; conditions: Rattus norvegicus, n = 3
Description: as §4, §5
as §3, with “Mean values were corrected with the absorption of stained medium and the corrected absorption of T0 cells. Cell” for “Cell”, “growth” for “viability”, “slope). […]” for “slope).”

[10] = 24 h incubation, read-out: IC50 (nM) CCRF-CEM 24 h
[11] = 48 h incubation, read-out: IC50 (nM) CCRF-CEM 48 h
[12] = 24 h incubation, read-out: IC50 (nM) SU-DHL-9 24 h
[13] = 48 h incubation, read-out: IC50 (nM) SU-DHL-9 48 h
[14] = HL-60, 24 h incubation, read-out: IC50 (nM) HL60 24 h
[15] = HL-60, 48 h incubation, read-out: IC50 (nM) HL60 48 h

| SMILES | IC50 [1, 10] [nM] | IC50 [1, 11] [nM] | viability of CLL cells in co-culture with stromal cells [2] | IC50 [3, 12] [nM] | IC50 [3, 13] [nM] | melting point [°C] | IC50 [4, 14] [nM] | IC50 [4, 15] [nM] | apoptosis induction compared with fludarabine and cyclophosphamide [5] | IC50 ([6]; n = 3, 48 h incubation, read-out: IC50 (nM) HUVEC (converted)) [nM] | IC50 ([6]; n = 3, read-out: IC50 (nM) HUVEC (Table 2)) [nM] | IC50 [7] [nM] | IC50 [8] [nM] | IC50 [9] [nM] |
| --- | --- | --- | --- | --- | --- | --- | --- | --- | --- | --- | --- | --- | --- | --- |
| CCOc1ccccc1C(=O)/C=C/c1ccc2ccccc2c1 [Compound 22, 3-(2-Naphthyl)-1-(2′-ethoxyphenyl)-2-propene-1-one] | 40 | 40 | higher cytotoxicity than the control drugs fludarabine and cyclophosphamide | 30 | 50 | 96 to 97 | 10 | 20 | induced apoptosis in a lower concentration range than fludarabine and cyclophosphamide |  |  |  |  |  |
| COc1ccccc1/C=C/C=C/C(=O)c1cc(OC)c(OC)c(OC)c1 [Compound 1, 5-(2-Methoxyphenyl)-1-(3′,4′,5′-trimethoxyphenyl)-2,4-pentadiene-1-one] | 70 | 70 | higher cytotoxicity than the control drugs fludarabine and cyclophosphamide | 60 | 50 |  | 490 | 170 | induced apoptosis in a lower concentration range than fludarabine and cyclophosphamide | 340 | 280 | 280 | 100 | > 100000 |
